In one assay the test system is 67R cells. As to the kind of experiment: Cell proliferation assay (SRB), ASK120067-resistant 67R cells. Conditions: 120 h, proliferation inhibition, mean ± SD (n = 3), cells with high BCAT1 expression. The class given is cell-based, Human. The text has this:
(§1) Subsequently, we evaluated the in vitro anti-proliferative activity of compounds 1, 2, 4 and 7 on the proliferation of both 67R and NCI-H1975 cells, using gabapentin as positive controls (Figure 3 and Table 2). These four compounds represented the potent BCAT1 inhibitors in the above enzymatic assay.
(§2) Cell culture and chemical reagents: Human NSCLC NCI-H1975 cells were purchased from American Type Culture Collection (ATCC, Manassas, VA, USA) and cultured in RPMI 1640 medium with 10% FBS in a cell incubator (37 °C, 5% CO2). ASK120067-resistant cells (67R) were constructed, cultured, and authenticated as described previously. Gabapentin (#T0702) was purchased from TargetMol (Boston, MA, USA).
(§3) A sulforodamine B (SRB) colorimetric assay was employed to detect the inhibitory effect of compounds on cell proliferation. Cells in the logarithmic growth phase were seeded into 96-well plates and cultured overnight. After incubation with the indicated compounds for 120 h, the culture medium was discarded. Then, 100 μL of 10% pre-cooled trichloroacetic acid (TCA) was added to each well to fix the cells at 4 °C for 1 h. The wells were then washed five times with distilled water. After drying, 100 μL of SRB dye (4 mg/mL SRB dissolved in 1% glacial acetic acid) was added to each well, and the cells were stained for 15 min at room temperature. After washing with 1% glacial acetic acid for five times, the plate was dried again. To dissolve the dye, 150 μL of 10 mM Tris solution was added to each well. The optical density (OD) was measured at 560 nm using a multi-well VersaMax spectrophotometer (Molecular Devices, Sunnyvale, CA, USA). The relative inhibition rate of the compounds on cell proliferation was calculated using the following formula: Inhibition rate (%) = [1 − (A560treated/A560control)] × 100%. The IC50 values were determined from the dose–response curves using the logit method.

The test system of a further assay is NCI-H1975 cells. As to the kind of experiment: Cell proliferation assay (SRB), NCI-H1975 cells. The class given is cell-based. The note with it: Homo sapiens, proliferation inhibition, 120 h, mean ± SD (n = 3).
Source text: as §1, §2, §3

The next assay deals with T1, BCAT1 enzyme (Homo sapiens, UniProt P54687).
T1 construct: purchased Sino Biological ME17NO0265
T1 sequence (P54687 1-386): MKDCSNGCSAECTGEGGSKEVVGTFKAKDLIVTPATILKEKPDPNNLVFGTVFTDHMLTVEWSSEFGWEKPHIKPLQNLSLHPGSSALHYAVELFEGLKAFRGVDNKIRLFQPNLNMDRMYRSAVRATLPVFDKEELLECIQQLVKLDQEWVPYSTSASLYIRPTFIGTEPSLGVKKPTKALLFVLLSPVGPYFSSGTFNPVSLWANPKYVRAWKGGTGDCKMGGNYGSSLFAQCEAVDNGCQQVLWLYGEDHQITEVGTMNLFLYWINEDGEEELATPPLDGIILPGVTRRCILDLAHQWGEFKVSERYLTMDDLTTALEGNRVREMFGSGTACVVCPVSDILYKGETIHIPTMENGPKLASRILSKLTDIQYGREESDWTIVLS
As to the kind of experiment: BCAT1 enzyme inhibition assay (LeuDH-coupled, NADH fluorescence). The class given is biochemical. The method, then: The inhibitory activity of the synthesized compounds against BCAT1 enzyme was screened by a known method, where leucine dehydrogenase (LeuDH) was utilized to catalyze the nicotinamide adenine dinucleotide (NADH)-dependent reduction of the BCAA α-ketoisocaproate (α-KIC) to leucine and NADH consumption was measured through fluorescence and luminescence readouts to assess BCAT1 activity.
The compounds to be tested or PBS was added to a 384-well plate, followed by the addition of assay buffer (50 mM ammonium sulfate, 1 mM EDTA, 2 mM DTT, 0.01% BSA, 0.5 μM PLP, 50 mM HEPES buffer (pH 7.4)), 0.01 U LeuDH enzyme (#E0217, Nanjing Duly Biotechnology Co., Ltd., Nanjing, China) and 15 ng BCAT1 enzyme (#ME17NO0265, Sino Biological, Beijing, China). Subsequently, 40 μM α-KG, 100 μM Leucine and 10 μM NADH substrate mixture were added to initiate the reaction. Fluorescence changes in NADH were dynamically monitored using the Spark cyto (Tecan, Männedorf, Switzerland). The rate of NADH fluorescence decay was calculated to assess enzyme activity.

The target of a further assay is hBCAT1. Also noted: method as in PMID 39791161. Conditions: Figure 1; cited from earlier work.
The next assay concerns BCAT1. Set-up: method as in PMID 39791161. The note with it: Figure 1; cited from earlier work.

In general, IC50 refers to the point on the concentration scale where inhibition reaches its midpoint. One may read the Ki as a dissociation constant, usually derived from enzyme kinetics or from competition with a known ligand.

For `NC[C@@]1(CC(=O)O)C[C@H]2CC=C[C@@H]1C2` (relative stereo) [7•p-TsOH, 2-((1S*,5S*,6R*)-6-(Aminomethyl)bicyclo[3.2.1]oct-3-en-6-yl)acetic acid], the concentration for half-maximal inhibition (IC50) with 67R cells (Homo sapiens) is below 2000 µM; in the assay with 67R cells it was 1640 ± 490 µM; with NCI-H1975 cells, 7260 ± 730 µM; against BCAT1 enzyme, 780 ± 190 µM. Also, the “enhancement in BCAT1 enzymatic inhibitory activity compared to the parent compound WQQ-345” value at BCAT1 enzyme (ratio of IC50 values versus WQQ-345) worked out at 6 fold.

`NCC1(CC(=O)O)CCCCC1` [gabapentin, reference compound]: the 50% inhibitory concentration (IC50) was 3530 ± 220 µM in the assay on 67R cells (Homo sapiens), above 10000 µM in the assay with NCI-H1975 cells and 5070 ± 1060 µM at BCAT1 enzyme. Also, on hBCAT1, the Ki is 3500 µM.

Take `NC[C@@]1(CC(=O)O)C[C@H]2CC[C@@H]1C2` (relative stereo) [Compound 1, 2-((1R*,2R*,4S*)-2-(Aminomethyl)bicyclo[2.2.1]heptan-2-yl)acetic acid]: the results for the IC50 in the assay with 67R cells (Homo sapiens), in the assay on NCI-H1975 cells and against BCAT1 enzyme were 2600 ± 930 µM, 7820 ± 480 µM and 2040 ± 590 µM, respectively.

With `NCC1(CC(=O)O)CC2CCC1CC2` (stereo not drawn) [4•HBr, 2-((1R*,2S*,4R*)-2-(aminomethyl)bicyclo[2.2.2]octan-2-yl)acetic acid], the values for the IC50 in the assay with 67R cells (Homo sapiens), in the assay with NCI-H1975 cells and at BCAT1 enzyme were 1380 ± 370 µM, 8080 ± 960 µM and 1710 ± 1000 µM, respectively.

On BCAT1 enzyme, `NC[C@]1(CC(=O)O)C[C@H]2CCC[C@@H]1C2` (relative stereo) [5•HBr, 2-((1S*,5R*,6S*)-6-(Aminomethyl)bicyclo[3.2.1]octan-6-yl)acetic acid] registered a 50% inhibitory concentration (IC50) of 4200 ± 1840 µM.

Take `NC[C@]1(CC(=O)O)C[C@H]2C=C[C@@H]1C2` (relative stereo) [3•p-TsOH, 2-((1S*,2S*,4S*)-2-(Aminomethyl)bicyclo[2.2.1]hept-5-en-2-yl)acetic acid]: inhibition against BCAT1 enzyme was half-maximal at 3960 ± 2830 µM (IC50).

`NC[C@@]1(CC(=O)O)C[C@H]2CCC[C@@H]1C2` (relative stereo) [Compound 6, 2-((1S*,5R*,6R*)-6-(Aminomethyl)bicyclo[3.2.1]octan-6-yl)acetic acid] registered an IC50 at BCAT1 enzyme of 1540 ± 470 µM.

As to `NC[C@@]1(CC(=O)O)C[C@H]2C=C[C@@H]1C2` (relative stereo) [2•p-TsOH, 2-((1S*,2R*,4S*)-2-(Aminomethyl)bicyclo[2.2.1]hept-5-en-2-yl)acetic acid], the IC50 in the assay on 67R cells (Homo sapiens) is below 2000 µM; in the assay on 67R cells it was 2710 ± 330 µM; in the assay on NCI-H1975 cells, 8990 ± 670 µM; against BCAT1 enzyme it was 2040 ± 980 µM.

`NC[C@]1(CC(=O)O)C[C@H]2CC[C@@H]1C2` [WQQ-345•HBr] had an IC50 against BCAT1 enzyme of 4860 ± 1980 µM.

Consider `Cc1ccccc1Oc1cc(-n2c(=O)cc(C(F)(F)F)[nH]c2=O)c2ccccc2c1Cl` [BAY-069], for which the 50% inhibitory concentration (IC50) in the assay on BCAT1 was 0.031 µM.

As to `CC(=O)C(C)CCC(=O)O` (centres unmarked) [MOHA], in the assay on hBCAT1, the 50% inhibitory concentration (IC50) was 1 to 10 µM.

On to `NC[C@]1(CC(=O)O)C[C@H]2CCCC1CC2` (relative stereo) [8•HBr, 2-((1S*,6S*)-6-(Aminomethyl)bicyclo[3.2.2]nonan-6-yl)acetic acid], for which the 50% inhibitory concentration (IC50) on BCAT1 enzyme worked out at 14500 ± 6390 µM.

Values taken from article PMC11858294, “Design, Synthesis and Biological Activity Study of γ-Aminobutyric Acid (GABA) Derivatives Containing Bridged Bicyclic Skeletons as BCAT1 Inhibitors” (Molecules, 2025).
